{"source": "ChEMBL document CHEMBL2074174", "about": "“Directional trans-epithelial transport of organic anions in porcine LLC-PK1 cells that co-express human OATP1B1 (OATP-C) and MRP2” (Biochem Pharmacol, 2005)", "target": "Canalicular multispecific organic anion transporter 1/Solute carrier organic anion transporter family member 1B1 (Homo sapiens, UniProt Q92887+Q9Y6L6)", "assay": "TP_TRANSPORTER: Transepithelial Transport (basal to apical) in OATP1B1/MRP2 double transfected LLC-PK1 cell", "type": "functional, cell-based", "details": "pig"}
{"molecule": "C[C@]12CC[C@@H]3c4ccc(OS(=O)(=O)O)cc4CC[C@H]3[C@@H]1CCC2=O", "note": "[ESTRONE SULFURIC ACID]", "values": [{"measurement": "Activity", "result": "substrate [(+)]"}]}
{"molecule": "C[C@]12CC[C@@H]3c4ccc(O)cc4CC[C@H]3[C@@H]1CC[C@@H]2O[C@@H]1O[C@H](C(=O)O)[C@@H](O)[C@H](O)[C@H]1O", "note": "[ESTRADIOL 17B GLUCURONIDE]", "values": [{"measurement": "Activity", "result": "substrate [(+)]"}]}
{"molecule": "C[C@]12CC[C@H](OS(=O)(=O)O)CC1=CC[C@@H]1[C@@H]2CC[C@]2(C)C(=O)CC[C@@H]12", "note": "[PRASTERONE SULFURIC ACID]", "values": [{"measurement": "Activity", "result": "substrate [(+)]"}]}
